The values that follow come from ChEMBL document CHEMBL5113458, “Structure-activity relationships of 2-pyrimidinecarbohydrazides as utrophin modulators for the potential treatment of Duchenne muscular dystrophy” (Bioorg Med Chem, 2022).

By half-life is commonly meant the time in which the quantity being followed falls by half.

A short description of series [1]: Metabolic stability in mouse hepatocytes assessed as half life. It counts as ADME, cell-based, Hepatocyte.
Series [2] can be described thus: Metabolic stability in mouse hepatocytes assessed as intrinsic clearance per 10^6 cells. The following applies: read-out: CLH. It counts as ADME, cell-based, Hepatocyte.
The target of a further series is Utrophin (Mus musculus) (UniProt E9Q6R7). In words: Modulation of mouse Utrophin in mouse H2K mdx cells assessed as fold increase in utrophin protein level at 0.1 to 10 uM incubated for 24 hrs by Western blot analysis. Type of series: cell-based. The following applies: filed as modulator, dose 0.1-10 µM.
Chain of Utrophin (Mus musculus) (E9Q6R7 as listed by the source): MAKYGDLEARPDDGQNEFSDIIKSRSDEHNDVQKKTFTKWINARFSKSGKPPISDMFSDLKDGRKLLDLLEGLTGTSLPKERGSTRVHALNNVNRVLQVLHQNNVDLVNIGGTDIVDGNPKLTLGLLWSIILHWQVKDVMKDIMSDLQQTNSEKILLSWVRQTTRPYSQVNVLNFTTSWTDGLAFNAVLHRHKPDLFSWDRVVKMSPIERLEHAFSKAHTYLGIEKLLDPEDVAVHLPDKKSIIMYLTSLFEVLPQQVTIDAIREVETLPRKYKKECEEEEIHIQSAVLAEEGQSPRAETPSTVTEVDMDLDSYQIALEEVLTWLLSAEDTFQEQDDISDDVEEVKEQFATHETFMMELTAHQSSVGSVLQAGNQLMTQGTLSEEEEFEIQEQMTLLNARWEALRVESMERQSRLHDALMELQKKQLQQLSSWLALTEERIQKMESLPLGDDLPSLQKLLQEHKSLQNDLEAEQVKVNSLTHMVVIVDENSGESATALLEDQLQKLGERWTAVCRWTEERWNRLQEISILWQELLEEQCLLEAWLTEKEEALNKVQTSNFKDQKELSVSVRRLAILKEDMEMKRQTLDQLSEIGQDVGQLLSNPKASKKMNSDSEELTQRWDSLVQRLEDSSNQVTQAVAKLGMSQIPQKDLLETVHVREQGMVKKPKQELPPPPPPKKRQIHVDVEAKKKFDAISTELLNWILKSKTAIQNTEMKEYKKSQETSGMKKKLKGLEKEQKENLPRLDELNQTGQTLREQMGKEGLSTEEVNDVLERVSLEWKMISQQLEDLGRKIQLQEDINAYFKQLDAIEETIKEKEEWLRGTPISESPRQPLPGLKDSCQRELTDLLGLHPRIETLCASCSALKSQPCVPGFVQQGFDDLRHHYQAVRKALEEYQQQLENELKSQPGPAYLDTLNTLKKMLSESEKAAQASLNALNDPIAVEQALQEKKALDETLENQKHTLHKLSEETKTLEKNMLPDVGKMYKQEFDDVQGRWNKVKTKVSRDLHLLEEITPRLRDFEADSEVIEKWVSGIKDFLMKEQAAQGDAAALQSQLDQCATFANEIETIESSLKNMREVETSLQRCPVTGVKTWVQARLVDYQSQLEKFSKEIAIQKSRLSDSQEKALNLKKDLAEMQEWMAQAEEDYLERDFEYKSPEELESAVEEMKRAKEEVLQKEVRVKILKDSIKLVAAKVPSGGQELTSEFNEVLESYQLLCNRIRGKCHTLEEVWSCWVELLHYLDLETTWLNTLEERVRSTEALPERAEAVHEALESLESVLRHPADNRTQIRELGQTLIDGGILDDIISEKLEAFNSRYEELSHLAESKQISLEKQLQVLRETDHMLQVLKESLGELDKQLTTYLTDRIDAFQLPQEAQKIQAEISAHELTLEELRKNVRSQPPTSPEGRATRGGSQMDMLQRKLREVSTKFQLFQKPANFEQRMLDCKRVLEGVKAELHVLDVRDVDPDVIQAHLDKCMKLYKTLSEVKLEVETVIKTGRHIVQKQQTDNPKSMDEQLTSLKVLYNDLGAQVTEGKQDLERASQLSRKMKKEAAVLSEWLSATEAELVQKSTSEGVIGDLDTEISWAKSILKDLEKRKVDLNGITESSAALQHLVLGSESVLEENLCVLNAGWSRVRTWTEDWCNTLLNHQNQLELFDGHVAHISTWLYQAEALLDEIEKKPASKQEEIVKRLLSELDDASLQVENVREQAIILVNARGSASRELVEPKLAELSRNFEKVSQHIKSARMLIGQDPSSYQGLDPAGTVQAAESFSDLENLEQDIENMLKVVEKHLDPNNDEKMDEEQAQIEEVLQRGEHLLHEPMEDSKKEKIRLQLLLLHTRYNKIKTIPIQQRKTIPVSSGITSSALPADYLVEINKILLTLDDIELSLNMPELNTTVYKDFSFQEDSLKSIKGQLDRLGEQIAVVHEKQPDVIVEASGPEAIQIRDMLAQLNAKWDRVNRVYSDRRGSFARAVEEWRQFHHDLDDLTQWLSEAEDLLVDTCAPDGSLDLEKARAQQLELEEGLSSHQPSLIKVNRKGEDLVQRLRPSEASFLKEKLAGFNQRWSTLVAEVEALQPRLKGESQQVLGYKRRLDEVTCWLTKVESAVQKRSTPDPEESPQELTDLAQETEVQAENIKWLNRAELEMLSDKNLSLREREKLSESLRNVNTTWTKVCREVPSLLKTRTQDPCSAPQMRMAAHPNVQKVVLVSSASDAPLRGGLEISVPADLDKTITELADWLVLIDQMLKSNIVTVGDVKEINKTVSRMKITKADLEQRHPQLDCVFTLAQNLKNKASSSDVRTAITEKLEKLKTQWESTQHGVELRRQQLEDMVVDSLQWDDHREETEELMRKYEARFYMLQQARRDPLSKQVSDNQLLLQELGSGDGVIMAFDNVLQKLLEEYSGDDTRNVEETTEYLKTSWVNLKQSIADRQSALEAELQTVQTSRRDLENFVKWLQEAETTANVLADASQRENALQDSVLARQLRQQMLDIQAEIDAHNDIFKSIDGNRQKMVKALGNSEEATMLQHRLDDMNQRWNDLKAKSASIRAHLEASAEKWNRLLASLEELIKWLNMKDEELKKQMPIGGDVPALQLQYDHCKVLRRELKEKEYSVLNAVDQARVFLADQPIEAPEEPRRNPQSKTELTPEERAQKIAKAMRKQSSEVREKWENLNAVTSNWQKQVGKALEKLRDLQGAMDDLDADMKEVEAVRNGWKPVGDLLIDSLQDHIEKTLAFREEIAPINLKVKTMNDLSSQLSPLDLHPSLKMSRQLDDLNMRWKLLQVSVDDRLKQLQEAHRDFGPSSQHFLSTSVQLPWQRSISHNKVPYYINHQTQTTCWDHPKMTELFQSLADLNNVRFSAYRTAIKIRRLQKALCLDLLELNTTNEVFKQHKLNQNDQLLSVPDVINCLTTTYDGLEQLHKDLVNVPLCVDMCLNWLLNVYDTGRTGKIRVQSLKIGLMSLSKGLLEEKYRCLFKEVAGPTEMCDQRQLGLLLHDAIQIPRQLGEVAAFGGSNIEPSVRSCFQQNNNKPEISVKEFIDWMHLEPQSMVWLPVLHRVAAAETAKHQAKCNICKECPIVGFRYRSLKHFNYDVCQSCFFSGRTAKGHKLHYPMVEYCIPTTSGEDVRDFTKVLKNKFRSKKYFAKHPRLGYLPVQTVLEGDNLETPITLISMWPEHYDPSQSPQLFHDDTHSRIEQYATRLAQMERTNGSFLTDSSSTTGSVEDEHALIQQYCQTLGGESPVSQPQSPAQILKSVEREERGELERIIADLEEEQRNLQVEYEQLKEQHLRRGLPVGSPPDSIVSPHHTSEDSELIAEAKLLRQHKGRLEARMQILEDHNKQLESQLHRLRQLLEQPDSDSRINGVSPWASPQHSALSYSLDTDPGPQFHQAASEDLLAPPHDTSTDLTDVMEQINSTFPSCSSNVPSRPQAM
The nature of series [3]: Semi-thermodynamic solubility of compound at pH 7.4. Type of series: physicochemical. Particulars: buffer, read-out: Therm_solubility.
Series [4] can be described thus: Metabolic stability in mouse liver microsomes assessed as intrinsic clearance per mg protein. Type of series: ADME, Microsome. Particulars: read-out: CLH.
Series [5] is described as follows: Metabolic stability in mouse liver microsomes assessed as half life. It counts as ADME, Microsome.

Values after ≈ are worked out from the molar mass of the structure shown.

Regarding `NNC(=O)c1nc(-c2ccccc2)cc(-c2ccc(C(F)(F)F)nc2)n1`, the half-life in series [1] is 1.77 h; in series [5] it was 7.57 h. Besides, the hepatocyte CLint in series [2] stood at 13 µL/min/1e6 cells. Also, at Utrophin (Mus musculus), the FC stood at 2.5. Besides, in series [3], the solubility thermodynamic stood at 200 µM (≈ 71.9 µg/mL). Moreover, the microsomal CLint in series [4] was 1.53 µL/min/mg.
